Experimental data taken from article PMC10849753, “Antiproliferative activity of platinum(II) and copper(II) complexes containing novel biquinoxaline ligands” (Metallomics: Integrated Biometal Science, 2024).

Test system: U87 cells
Experiment: Matrigel invasion analysis
Format: cell-based, human
Details: U87, 6.25 and 12.5 μM, 24 h, vs negative control
Protocol: The analysis was completed with U87 and HeLa cell lines to assess the metastatic potential of tumor cells using transwell inserts with an 8 μm pore size polycarbonate membrane (Corning Costar, Cambridge, MA, USA) coated with 1/5 of Matrigel (Beckton Dickinson, Bedford, MA, USA) and air-dried at room temperature. After seeding the U87 and HeLa cell lines (3 × 10^5cells/insert), the complex concentrations were selected as 6.25 or 12.5 μM and incubated at 37°C in a humidified incubator with 5% CO2 for 24 h. The cell monolayers in the transwell inserts were fixed with ice-cold methanol and stained with 0.05% crystal violet for the analysis. The invasion of the cells to the basolateral side of the inserts was investigated using a light microscope with 40× magnification.

With `[Cl][Cu][Cl].c1ccc(-c2nc3ccc(-c4ccc5nc(-c6ccccn6)c(-c6ccccn6)nc5c4)cc3nc2-c2ccccn2)nc1` [Cu(tpbq)Cl2] the anti-invasive effect was “did not have any anti-invasive effect”.
